Like-named read-outs stand apart in the source and are kept apart here.
Assays:
[1] = tested on: Phytophthora infestans (the causal agent of tomato late blight); assay: whole plant or invertebrate; assay type: in vivo; conditions: for TLB Obsd: Table E; for TLB Obsd (observed effect, tomato late blight): component (b) alone; for TLB Obsd (disease control rating): Table B
[2] = tested on: Pseudoperonospora cubensis (the causal agent of cucumber downy mildew); assay: Test B: cucumber downy mildew, preventive spray on cucumber seedlings; assay type: in vivo; conditions: for CDM Obsd (disease control rating): Table B

Question: With C#CCOc1ccc(CCNC(=O)C(OCC#C)c2ccc(Cl)cc2)cc1OC (centres unmarked) [mandipropamid] as the compound, how does the “TLB Obsd” value ([1]; component (b) alone at 0.016 ppm) read?
Answer: 26%

Question: And the “TLB Obsd” value ([1]; component (b) alone at 0.08 ppm)?
Answer: 33%

Question: What about the “TLB Obsd” value ([1]; component (b) alone at 0.4 ppm) of the same compound?
Answer: 88%

Question: And the “TLB Obsd” value ([1]; component (b) alone at 2 ppm)?
Answer: 100%

Question: What about the “TLB Obsd” value ([1]; component (b) alone at 10 ppm) of the same compound?
Answer: 100%

Question: What about the “TLB Obsd (observed effect, tomato late blight)” value ([1]; 0.08 ppm) of the same compound?
Answer: 80

Question: And the “TLB Obsd (observed effect, tomato late blight)” value ([1]; 0.4 ppm)?
Answer: 97

Question: And the “TLB Obsd (observed effect, tomato late blight)” value ([1]; 2 ppm)?
Answer: 99

Question: What about the “TLB Obsd (observed effect, tomato late blight)” value ([1]; 10 ppm) of the same compound?
Answer: 100

Question: And the “TLB Obsd (observed effect, tomato late blight)” value ([1]; 40 ppm)?
Answer: 100

Question: What about the “CDM Obsd” value ([2]; Table F, component (b) alone at 0.016 ppm) of the same compound?
Answer: 33%

Question: What about the “CDM Obsd” value ([2]; Table F, component (b) alone at 0.08 ppm) of the same compound?
Answer: 97%

Question: And the “CDM Obsd” value ([2]; Table F, component (b) alone at 0.4 ppm)?
Answer: 100%

Question: What about the “CDM Obsd” value ([2]; Table F, component (b) alone at 2 ppm) of the same compound?
Answer: 100%

Question: What about the “CDM Obsd” value ([2]; Table F, component (b) alone at 10 ppm) of the same compound?
Answer: 100%

Question: What about the “CDM Obsd (observed effect, cucumber downy mildew)” value ([2]; component (b) alone, 0.08 ppm) of the same compound?
Answer: 86

Question: And the “CDM Obsd (observed effect, cucumber downy mildew)” value ([2]; component (b) alone, 0.4 ppm)?
Answer: 100

Question: What about the “CDM Obsd (observed effect, cucumber downy mildew)” value ([2]; component (b) alone, 2 ppm) of the same compound?
Answer: 100

Question: What about the “CDM Obsd (observed effect, cucumber downy mildew)” value ([2]; component (b) alone, 10 ppm) of the same compound?
Answer: 100

Question: And the “CDM Obsd (observed effect, cucumber downy mildew)” value ([2]; component (b) alone, 40 ppm)?
Answer: 100

Question: What does the source list for Fc1ccc(Oc2ccnc3cc(Cl)cc(Cl)c23)cc1 [quinoxyfen]?
Answer: pest or weed control at 0.016 ppm ([1]; Phytophthora infestans, read-out: TLB Obsd, Table E, component (b) alone at 0.016 ppm): 9%; pest or weed control at 0.08 ppm ([1]; Phytophthora infestans, read-out: TLB Obsd, Table E, component (b) alone at 0.08 ppm): 24%; pest or weed control at 0.4 ppm ([1]; Phytophthora infestans, read-out: TLB Obsd, Table E, component (b) alone at 0.4 ppm): 26%; pest or weed control at 2 ppm ([1]; Phytophthora infestans, read-out: TLB Obsd, Table E, component (b) alone at 2 ppm): 9%; pest or weed control at 10 ppm ([1]; Phytophthora infestans, read-out: TLB Obsd, Table E, component (b) alone at 10 ppm): 9%; pest or weed control at 0.4 ppm ([1]; Phytophthora infestans, read-out: TLB Obsd, component (b) alone, 0.4 ppm): 0%; pest or weed control at 2 ppm ([1]; Phytophthora infestans, read-out: TLB Obsd, component (b) alone, 2 ppm): 7%; pest or weed control at 10 ppm ([1]; Phytophthora infestans, read-out: TLB Obsd, component (b) alone, 10 ppm): 7%; pest or weed control at 40 ppm ([1]; Phytophthora infestans, read-out: TLB Obsd, component (b) alone, 40 ppm): 0%; pest or weed control at 200 ppm ([1]; Phytophthora infestans, read-out: TLB Obsd, component (b) alone, 200 ppm): 0%; pest or weed control at 0.016 ppm ([2]; Pseudoperonospora cubensis, Table F, component (b) alone at 0.016 ppm, read-out: CDM Obsd): 26%; pest or weed control at 0.08 ppm ([2]; Pseudoperonospora cubensis, Table F, component (b) alone at 0.08 ppm, read-out: CDM Obsd): 26%; pest or weed control at 0.4 ppm ([2]; Pseudoperonospora cubensis, Table F, component (b) alone at 0.4 ppm, read-out: CDM Obsd): 26%; pest or weed control at 2 ppm ([2]; Pseudoperonospora cubensis, Table F, component (b) alone at 2 ppm, read-out: CDM Obsd): 26%; pest or weed control at 10 ppm ([2]; Pseudoperonospora cubensis, Table F, component (b) alone at 10 ppm, read-out: CDM Obsd): 26%; pest or weed control at 0.4 ppm ([2]; Pseudoperonospora cubensis, component (b) alone, 0.4 ppm, read-out: CDM Obsd): 0%; pest or weed control at 2 ppm ([2]; Pseudoperonospora cubensis, component (b) alone, 2 ppm, read-out: CDM Obsd): 0%; pest or weed control at 10 ppm ([2]; Pseudoperonospora cubensis, component (b) alone, 10 ppm, read-out: CDM Obsd): 0%; pest or weed control at 40 ppm ([2]; Pseudoperonospora cubensis, component (b) alone, 40 ppm, read-out: CDM Obsd): 0%; pest or weed control at 200 ppm ([2]; Pseudoperonospora cubensis, component (b) alone, 200 ppm, read-out: CDM Obsd): 0%

Question: benthiovalicarb was tested. Which “TLB Obsd (disease control rating)” value ([1]; component (b) alone 0.4 ppm) did it give?
Answer: 53%

Question: What about the “TLB Obsd (disease control rating)” value ([1]; component (b) alone 2 ppm) of the same compound?
Answer: 100%

Question: And the “TLB Obsd (disease control rating)” value ([1]; component (b) alone 10 ppm)?
Answer: 100%

Question: And the “TLB Obsd (disease control rating)” value ([1]; component (b) alone 40 ppm)?
Answer: 100%

Question: What about the “CDM Obsd (disease control rating)” value ([2]; component (b) alone 0.4 ppm) of the same compound?
Answer: 90%

Question: What about the “CDM Obsd (disease control rating)” value ([2]; component (b) alone 2 ppm) of the same compound?
Answer: 100%

Question: And the “CDM Obsd (disease control rating)” value ([2]; component (b) alone 10 ppm)?
Answer: 100%

Question: What about the “CDM Obsd (disease control rating)” value ([2]; component (b) alone 40 ppm) of the same compound?
Answer: 100%

Question: And the “CDM Obsd” value ([2]; component (b) alone 0.08 ppm (Compound 1 0 ppm))?
Answer: 33%

Question: What about the “CDM Obsd” value ([2]; component (b) alone 0.4 ppm (Compound 1 0 ppm)) of the same compound?
Answer: 86%

Question: What about the “CDM Obsd” value ([2]; component (b) alone 2 ppm (Compound 1 0 ppm)) of the same compound?
Answer: 100%

Question: And the “CDM Obsd” value ([2]; component (b) alone 10 ppm (Compound 1 0 ppm))?
Answer: 100%

Question: What about the “CDM Obsd” value ([2]; component (b) alone 40 ppm (Compound 1 0 ppm)) of the same compound?
Answer: 100%
